Where “and” joins values, the source holds several entries; their conditions need not be identical. Identical values can stand only once.

One data set deals with T1, HECT domain of E6AP (Homo sapiens, UniProt Q05086).
T1 construct: serial dilution of E6AP HECT domain; inferred from pET28a vector and Ni-NTA purification; made in house; host or cells: E. coli BL21 (DE3) pLysS, plasmid pET28a-E6AP HECT
T1 sequence (Q05086 518-875 limits assumed): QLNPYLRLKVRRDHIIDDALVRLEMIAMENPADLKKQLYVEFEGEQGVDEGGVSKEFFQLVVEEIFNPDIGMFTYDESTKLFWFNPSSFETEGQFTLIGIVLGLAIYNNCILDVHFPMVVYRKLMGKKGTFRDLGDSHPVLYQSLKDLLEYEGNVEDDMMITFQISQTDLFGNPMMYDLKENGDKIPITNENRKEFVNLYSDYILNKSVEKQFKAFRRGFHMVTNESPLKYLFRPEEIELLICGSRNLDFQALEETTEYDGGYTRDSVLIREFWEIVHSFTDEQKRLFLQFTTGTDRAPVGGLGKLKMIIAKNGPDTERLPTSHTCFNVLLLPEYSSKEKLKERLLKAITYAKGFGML
The data set is described as follows: Fluorescence polarization binding affinity of FITC-labeled peptides with the E6AP HECT domain. Particulars: Kd of the peptide-HECT complex. As for the experimental part: The library was screened based on the binding between the bead-anchored peptides with the HECT domain of E6AP with an N-terminal Flag tag that was recognized by an anti-Flag antibody labeled with AlexaFluor 488 that would emit green fluorescence. […] The peptide ligands from the screen were named P1-8 and they were resynthesized to measure their individual binding affinities with the HECT domain by fluorescence polarization (FP).
The binding affinity (Kd) of the peptides were measured by fluorescence polarization. Briefly, a constant amount of the 100 nM FITC-labeled cyclic peptide was incubated with a serial dilution of E6AP HECT domain. The Kd values was calculated using the following equation, in which the Lst and x refer to the concentration of peptide and protein, respectively.
On the technique in general: Fluorescence polarisation rises when a labelled molecule tumbles more slowly, as on binding a larger partner.

Data set [1] in a line: Serum stability assay (25% serum, HPLC). It is filed as in vitro ADME, human. Conditions: 25% serum (v/v), 37° C., 24 h. The method, then:
(§1) A distinctive characteristic of γ-AA peptides compared with canonical peptides is their remarkable resistance to protease. To assay the stability of P6 in presence of protease, P6 was incubated with 0.1 mg/mL pronase at 37° C. for 24 h.
The serum stabilities of peptides were determined in 25% (v/v) aqueous pooled serum from human male AB plasma (Sigma-Aldrich, Milan, Italy). 1 mg P6 was dissolved in 50 μL CH3CN/H2O (70:30, v/v) and then diluted in serum and incubated at 37° C. for 24 h. Then, 100 μL of solution was added to 100 μL of CH3CN on ice for 15 min and was centrifuged at 4° C. for 10 min. The supernatant was then analyzed by a Waters analytical HPLC system with a 1 mL/min flow rate and 5-100% linear gradient of solvent B (0.1% TFA in acetonitrile) in A (0.1% TFA in water) over the duration of 50 min. The UV detector was set to 215 nm.

A further data set has as its system pronase. Briefly: Enzymatic stability study with pronase (HPLC, MS). It is filed as in vitro ADME. Particulars: 0.1 mg/mL pronase, 37° C., 24 h. The method, then: as §1
0.01 mg/mL P6 was incubated with 0.1 mg/mL pronase in 100 mM ammonium bicarbonate buffer (pH 7.8) at 37° C. for 24 h. The reaction mixture was concentrated in a speed vacuum to remove the water and ammonium bicarbonate. The remains were dissolved in 100 μL H2O/CH3CN and analyzed by a Waters analytical HPLC system with a 1 mL/min flow rate and 5-100% linear gradient of solvent B (0.1% TFA in acetonitrile) in A (0.1% TFA in water) over the duration of 50 min. The UV detector was set to 215 nm.

As usually defined, the Kd is the concentration at which binding is half-saturated. Low readings indicate tighter binding, high ones weaker binding. Turning to `CC(C)C[C@H]1CN(CC(N)=O)C(=O)CCSCc2ccc(cc2)C(=O)N[C@@H](C)CN(C(=O)Cc2ccc3ccccc3c2)CC(=O)N[C@@H](CC(C)C)CN(C(=O)CCc2ccccc2)CC(=O)N[C@@H](Cc2ccccc2)CN(C(=O)Cc2ccc3c(c2)OCO3)CC(=O)N1` [P3], the Kd on HECT domain of E6AP lay in the range of 80 to 218 nM.

In turn, `C[C@H]1CN(C(=O)Cc2ccc3c(c2)OCO3)CC(=O)N[C@@H](Cc2ccccc2)CN(C(=O)Cc2ccc3ccccc3c2)CC(=O)N[C@@H](CCC(=O)O)CN(C(=O)CC2CC2)CC(=O)N[C@@H](Cc2ccccc2)CN(CC(N)=O)C(=O)CCSCc2ccc(cc2)C(=O)N1` [P8] had a Kd on HECT domain of E6AP of 80 to 218 nM. For `COc1cc(CC(=O)N2CC(=O)N[C@@H](Cc3ccccc3)CN(C(=O)CC3CC3)CC(=O)N[C@@H](CC(C)C)CN(CC(N)=O)C(=O)CCSCc3ccc(cc3)C(=O)N[C@@H](CCCCN)CN(C(=O)Cc3ccc4ccccc4c3)CC(=O)N[C@@H](CC(C)C)C2)cc(OC)c1` [P6], in data set [1], the “stability in human serum” value was “stability was confirmed”. For the same compound, the Kd at HECT domain of E6AP was 80 to 218 nM and 218 nM. For the same compound, in the data set with pronase, the “stability in presence of protease” value is “resistant to protease cleavage”.

Regarding `COc1cc(CC(=O)N2CC(=O)N[C@@H](C)CN(C(=O)Cc3cc(OC)cc(OC)c3)CC(=O)N[C@@H](CC(C)C)CN(CC(N)=O)C(=O)CCSCc3ccc(cc3)C(=O)N[C@@H](Cc3ccccc3)CN(C(=O)Cc3ccc4c(c3)OCO4)CC(=O)N[C@@H](Cc3ccccc3)C2)cc(OC)c1` [P7], the Kd at HECT domain of E6AP fell in the range of 80 to 218 nM.

The compound `CC(C)C[C@H]1CN(CC(N)=O)C(=O)CCSCc2ccc(cc2)C(=O)N[C@@H](Cc2ccccc2)CN(C(=O)Cc2ccc3ccccc3c2)CC(=O)N[C@@H](CC(C)C)CN(C(=O)CCC2CCCCC2)CC(=O)N[C@@H](Cc2ccccc2)CN(C(=O)Cc2ccc3c(c2)OCO3)CC(=O)N1` [P4] returned a Kd at HECT domain of E6AP of 80 to 218 nM.

On HECT domain of E6AP, `COc1cc(CC(=O)N2CC(=O)N[C@@H](Cc3ccccc3)CN(C(=O)CC3CC3)CC(=O)N[C@@H](CC(C)C)CN(CC(N)=O)C(=O)CCSCc3ccc(cc3)C(=O)N[C@@H](CCC(=O)O)CN(C(=O)Cc3ccc4c(c3)OCO4)CC(=O)N[C@@H](CC(C)C)C2)cc(OC)c1` [P5] yielded a dissociation constant Kd of 80 to 218 nM.

The record behind these values is patent US20240368219A1, “ACTIVATION OF E6AP/UBE3A-MEDIATED PROTEIN UBIQ[…] D[…] BY A CYCLIC GAMMA-AA PEPTIDE” (University of South Florida, priority 2022, published 2024).
